Measurements published in patent US20220202899A1, “COMPOSITION FOR PREVENTION OR TREATMENT OF HAIR LOSS INCLUDING HAPLN1” (HAPLNSCIENCE INC., priority 2019, published 2022).

Experiments:
p-ERK1/2 = p-ERK1/2 in human hair germinal matrix cells stimulated with TGF-β2 (Western blotting); format: cell-based; details: HAPLN1 25 ng/mL and/or HA 25 μg/mL, 23 hours; TGF-β2 2 ng/mL, 1 hour
Protocol: (§1) Human hair germinal matrix cells were dispensed into a poly-D-lysine 6-well plate at a concentration of 5.0×10^4 per well and cultured for 24 hours. After 24 hours, the medium was removed and replaced with a new serum-free medium. HAPLN1 was treated with 25 ng/mL and HA with 25 μg/mL, incubated for 23 hours, and then stimulated with TGF-β2 (2 ng/mL) for 1 hour. After collecting cells, a lysis buffer (25 mM Tris-HCl, 1 mM EDTA, 0.1% Triton-X100, phosphatase inhibitor, and protease inhibitor) was added, and all the cells were broken through sonication. p-ERK1/2, p-Smad2, p-MEK1/2, and p-c-Raf in the sample were measured using Western blotting. Optical densities of p-ERK1/2, p-Smad2, p-MEK1/2, and p-c-Raf were compared to those of ERK1/2, Smad2/3, MEK1, and c-Raf using a densitometer. Here, ERK1/2, Smad2/3, MEK1, and c-Raf were used as loading controls.

TβRII [1] = experiment: TβRII protein after exogenous HAPLN1 and/or HA in endogenous HAPLN1-deficient human hair germinal matrix cells; format: cell-based; details: after HAPLN1 siRNA; HAPLN1 25 ng/mL and/or HA 25 μg/mL; TGF-β2 2 ng/mL, 23 hours
Protocol: (§2) The human hair germinal matrix cells were dispensed into a poly-D-lysine 6-well plate at a concentration of 5.0×10^4 per well and cultured for 24 hours. After 24 hours, the medium was removed and replaced with a low-serum medium. HAPLN1 siRNA and scrambled siRNA were added at a concentration of 25 pmol per well and incubated for 24 hours. After the siRNA and the medium were all removed, the medium was replaced with a serum-free medium having HAPLN1 (25 ng/mL) or HA (25 μg/mL) added thereto, and cultured for 1 hour. TGF-β2 (2 ng/mL) was treated and incubated for 23 hours. After collecting cells, a lysis buffer (25 mM Tris-HCl, 1 mM EDTA, 0.1% Triton-X100, phosphatase inhibitor, and protease inhibitor) was added, and all the cells were broken through sonication. TβRII in the sample was measured using Western blotting. The optical density of TβRII was compared to that of GAPDH using a densitometer.

cell membrane TβRII = experiment: Cell membrane TβRII protein (biotin labelling, immunoprecipitation, Western blotting); format: cell-based, human; details: HAPLN1 25 ng/mL and/or HA 25 μg/mL; TGF-β2 2 ng/mL
Protocol: All proteins present in the cell membrane were labeled with biotin, and immunoprecipitation was performed with a biotin antibody to isolate only the cell membrane protein. In order to confirm changes in the ratio of TβRII among cell membrane proteins, Western blotting was performed. The specific experimental method will now be described.
Human hair germinal matrix cells were dispensed into a poly-D-lysine 100 mm dish at a concentration of 2.7×10^6 and cultured for 24 hours. After 24 hours, the medium was removed and replaced with a new serum-free medium. HAPLN1 was treated with 25 ng/mL and HA with 25 μg/mL, and after 1 hour, TGF-β2 (2 ng/mL) was treated. To label biotin after 23 hours, EZ-Link™ Sulfo-NHS-LC-Biotin (Thermo Fisher Scientific, MA, USA) was treated at a concentration of 250 μg/mL and incubated at 4° C. for 1 hour. The biotin labeling reaction was terminated by treatment with 50 mM Tris-HCl. After collecting cells, a lysis buffer (50 mM Tris-HCl, 150 mM NaCl, 1% NP-40, phosphatase inhibitor, and protease inhibitor) was added, and all the cells were broken through sonication. Cell membrane proteins were isolated by performing immunoprecipitation experiments using anti-biotin antibodies. TβRII in the isolated membrane protein sample was measured using Western blotting. The optical density of TβRII was compared to that of GAPDH using a densitometer.

TβRII [2] = experiment: TβRII protein after HAPLN1 and/or HA in CD44-deficient human hair germinal matrix cells; format: cell-based; details: after CD44 siRNA; HAPLN1 25 ng/mL and/or HA 25 μg/mL; TGF-β2 2 ng/mL, 23 hours
Protocol: as §2, with “matrix cells, which were made to be deficient in CD44 by using CD44 siRNA,” for “matrix cells”, “medium. CD44” for “medium. HAPLN1”

TβRII [3] = experiment: TβRII protein in human hair germinal matrix cells treated with HAPLN1 and/or HA, then TGF-β2 (Western blotting); format: cell-based; details: HAPLN1 25 ng/mL or HA 25 μg/mL alone; TGF-β2 2 ng/mL after 1 hour; 23 hours
Protocol: Human hair germinal matrix cells were dispensed into a poly-D-lysine 6-well plate at a concentration of 5.0×10^4 per well and cultured for 24 hours. After 24 hours, the medium was removed and replaced with a new serum-free medium. HAPLN1 was treated with 25 ng/mL, HA was treated with 25 μg/mL, and after 1 hour, TGF-β2 (2 ng/mL) was treated. After 23 hours, cells were collected, a lysis buffer (25 mM Tris-HCl, 1 mM EDTA, 0.1% Triton-X100, phosphatase inhibitor, and protease inhibitor) was added, and all the cells were broken through sonication. TβRI and TβRII in the sample were measured using Western blotting. The optical density of TβRII was compared to that of GAPDH using a densitometer.

p-Smad2 = p-Smad2 in human hair germinal matrix cells stimulated with TGF-β2 (Western blotting); format: cell-based; details: HAPLN1 25 ng/mL and/or HA 25 μg/mL; TGF-β2 2 ng/mL, 1 hour
Protocol: as §1

p-c-Raf = p-c-Raf in human hair germinal matrix cells stimulated with TGF-β2 (Western blotting); format: cell-based; details: HAPLN1 25 ng/mL and/or HA 25 μg/mL; TGF-β2 2 ng/mL, 1 hour
Protocol: as §1

p-MEK1/2 = p-MEK1/2 in human hair germinal matrix cells stimulated with TGF-β2 (Western blotting); format: cell-based; details: HAPLN1 25 ng/mL and/or HA 25 μg/mL; TGF-β2 2 ng/mL, 1 hour
Protocol: as §1

[4] = test system: human hair germinal matrix cells; experiment: Cell proliferation of human hair germinal matrix cells, CCK-8 (Example 10); format: cell-based; details: HAPLN1 25 ng/mL and/or HA 25 μg/mL; TGF-β2 2 ng/mL, 23 hours
Protocol: Human hair germinal matrix cells were dispensed into a poly-D-lysine 96-well plate at a concentration of 2.0×10^4 per well and cultured for 24 hours. After 24 hours, the medium was removed and replaced with a new serum-free medium. HAPLN1 was treated with 25 ng/mL and HA with 25 μg/mL, incubated for 1 hour, and then stimulated with TGF-β2 (2 ng/mL) for 23 hours. CCK-8 (Enzo Biochem, NY, USA) was treated and incubated at 37° C. for 1 hour.

[5] = test system: human dermal papilla cells; experiment: Dermal papilla cell proliferating effect, CCK-8 (Example 13); format: cell-based; details: proteins 25 ng/ml, minoxidil 10 μM; TGF-β2 (2 ng/ml) present or absent
Protocol: Human dermal papilla cells were cultured in a 37° C., 5% CO2 incubator using a dermal papilla cell proliferation medium (Promocell). When the cells were about 90% full, the cells were detached with a 0.05% Trypsin/EDTA solution and then centrifuged at 1000 rpm for 3 minutes to recover only the cells. The cells were dispensed into a 96-well plate at 2.0×10^3 per well, cultured for 24 hours, and HAPLN1, CX3CL1 and CDON were diluted to have a final concentration of 25 ng/ml in serum-free medium. After removing the existing culture medium, 200 μl of diluted HAPLN1, CX3CL1, and CDON were dispensed into each well and cultured for 1 hour. To reduce an experimental variation, 3 wells per group were treated (triplication). In addition, minoxidil, which is known to proliferate dermal papilla cells, was treated with 10 μM and set as a positive control.
(§3) In the same manner as described above, HAPLN1 (25 ng/ml), CX3CL1 (25 ng/ml), CDON (25 ng/ml) or minoxidil (10 μM), and human recombinant TGF-β2 were diluted to a final concentration of 2 ng/ml, and the medium of the group containing TGF-β2 was replaced by 200 μl. To reduce an experimental variation, 3 wells per group were treated (triplication).
(§4) After incubation for 23 hours, the plate was removed from the incubator, and 20 μl of CCK-8 (WST-8) solution was added to the plate containing the medium and the reagent per 200 μl of the medium for the reaction to be carried out at 37° C. for 1 hour.

[6] = test system: human hair germinal matrix cells; experiment: Hair germinal matrix cell proliferating effect, CCK-8 (Example 13); format: cell-based; details: 25 ng/ml; TGF-β2 condition not given
Protocol: as §3, §4
Human hair germinal matrix cells were released in a poly-D-lysine-coated flask using a mesenchymal stem cell medium (MSCM), and cultured in a 5% CO2 incubator at 37° C. When the cells were about 90% full, the cells were detached with a 0.05% Trypsin/EDTA solution, and then only the cells were recovered by centrifugation at 1000 rpm for 3 minutes. The recovered cells were dispensed into 96-well poly-D-lysine coated plates (BD bioscience) at 2.0×10^3 per well and cultured for 24 hours, and the final concentrations of HAPLN1, CX3CL1 and CDON were diluted to 25 ng/ml in a serum-free medium. The subsequent process was performed in the same manner as the experiment for the dermal papilla cells to measure the absorbance, and the results are shown in FIG. 22.

Hyaluronic acid [HA, reference compound]
ERK1/2 signaling (p-ERK1/2 compared to ERK1/2) (p-ERK1/2): activated | TβRII protein in endogenous HAPLN1-deficient cells (TβRII [1]): recovered | cell membrane TβRII protein concentration (cell membrane TβRII): increased | TβRII protein in CD44-deficient cells (TβRII [2]): not confirmed that TβRII was recovered | TβRII protein (optical density compared to GAPDH) (TβRII [3]): increased | phosphorylation of Smad2 (p-Smad2): no change | c-Raf activity (p-c-Raf compared to c-Raf) (p-c-Raf): increased activities | MEK1/2 activity (p-MEK1/2 compared to MEK1) (p-MEK1/2): increased activities | cell proliferation (absorbance at 450 nm) compared to the control group [4]: promoted

B1: CDON: protein expressed by a cell adhesion gene present in dermal papilla cells (protein, UniProt Q4KMG0 26-1287, looked up)
Cell adhesion …: DLAPYFTSEPLSAVQKLGGPVVLHCSAQPVTTRISWLHNGKTLDGNLEHVKIHQGTLTILSLNSSLLGYYQCLANNSIGAIVSGPATVSVAVLGDFGSSTKHVITAEEKSAGFIGCRVPESNPKAEVRYKIRGKWLEHSTENYLILPSGNLQILNVSLEDKGSYKCAAYNPVTHQLKVEPIGRKLLVSRPSSDDVHILHPTHSQALAVLSRSPVTLECVVSGVPAPQVYWLKDGQDIAPGSNWRRLYSHLATDSVDPADSGNYSCMAGNKSGDVKYVTYMVNVLEHASISKGLQDQIVSLGATVHFTCDVHGNPAPNCTWFHNAQPIHPSARHLTAGNGLKISGVTVEDVGMYQCVADNGIGFMHSTGRLEIENDGGFKPVIITAPVSAKVADGDFVTLSCNASGLPVPVIRWYDSHGLITSHPSQVLRSKSRKSQLSRPEGLNLEPVYFVLSQAGASSLHIQAVTQEHAGKYICEAANEHGTTQAEASLMVVPFETNTKAETVTLPDAAQNDDRSKRDGSETGLLSSFPVKVHPSAVESAPEKNASGISVPDAPIILSPPQTHTPDTYNLVWRAGKDGGLPINAYFVKYRKLDDGVGMLGSWHTVRVPGSENELHLAELEPSSLYEVLMVARSAAGEGQPAMLTFRTSKEKTASSKNTQASSPPVGIPKYPVVSEAANNNFGVVLTDSSRHSGVPEAPDRPTISTASETSVYVTWIPRANGGSPITAFKVEYKRMRTSNWLVAAEDIPPSKLSVEVRSLEPGSTYKFRVIAINHYGESFRSSASRPYQVVGFPNRFSSRPITGPHIAYTEAVSDTQIMLKWTYIPSSNNNTPIQGFYIYYRPTDSDNDSDYKRDVVEGSKQWHMIGHLQPETSYDIKMQCFNEGGESEFSNVMICETKVKRVPGASEYPVKDLSTPPNSLGSGGNVGPATSPARSSDMLYLIVGCVLGVMVLILMVFIAMCLWKNRQQNTIQKYDPPGYLYQGSDMNGQMVDYTTLSGASQINGNVHGGFLTNGGLSSGYSHLHHKVPNAVNGIVNGSLNGGLYSGHSNSLTRTHVDFEHPHHLVNGGGMYTAVPQIDPLECVNCRNCRNNNRCFTKTNSTFSSSPPPVVPVVAPYPQDGLEMKPLSHVKVPVCLTSAVPDCGQLPEESVKDNVEPVPTQRTCCQDIVNDVSSDGSEDPAEFSRGQEGMINLRIPDHLQLAKSCVWEGDSCAHSETEINIVSWNALILPPVPEGCAEKTMWSPPGIPLDSPTEVLQQPRET
dermal papilla cell proliferation (absorbance at 450 nm) [5]: did not proliferate dermal papilla cells or rather inhibited proliferation thereof | hair germinal matrix cell proliferation (absorbance at 450 nm) [6]: inhibiting cell proliferation

B2: CX3CL1: protein expressed by a cell adhesion gene present in dermal papilla cells (protein, UniProt P78423 25-397, looked up)
Fractalkine: QHHGVTKCNITCSKMTSKIPVALLIHYQQNQASCGKRAIILETRQHRLFCADPKEQWVKDAMQHLDRQAAALTRNGGTFEKQIGEVKPRTTPAAGGMDESVVLEPEATGESSSLEPTPSSQEAQRALGTSPELPTGVTGSSGTRLPPTPKAQDGGPVGTELFRVPPVSTAATWQSSAPHQPGPSLWAEAKTSEAPSTQDPSTQASTASSPAPEENAPSEGQRVWGQGQSPRPENSLEREEMGPVPAHTDAFQDWGPGSMAHVSVVPVSSEGTPSREPVASGSWTPKAEEPIHATMDPQRLGVLITPVPDAQAATRRQAVGLLAFLGLLFCLGVAMFTYQSLQGCPRKMAGEMAEGLRYIPRSCGSNSYVLVPV
dermal papilla cell proliferation (absorbance at 450 nm) [5]: did not proliferate dermal papilla cells or rather inhibited proliferation thereof | hair germinal matrix cell proliferation (absorbance at 450 nm) [6]: inhibiting cell proliferation
